Source: patent US20160199524A1, “RADIOSENSITIVITY OF FLUOROPHORES AND USE OF RADIOPROTECTIVE AGENTS FOR DUAL-MODALITY IMAGING” (Immunomedics, Inc., priority 2015, published 2016)

Tests used:
[1] = Stability of Al^18F(IMP485)/IMP487 in human serum at 37° C.; type: in vitro ADME; conditions: four hours
Procedure: A kit containing 40 nmol of IMP485 or IMP487, 20 nmol AlCl3, 0.1 mg ascorbic acid and 0.1 g trehalose adjusted to pH 3.9 was reconstituted with purified ^18F^− in 200 μL saline and heated 106° C. for 15 min. The reaction mixture was then diluted with 800 μL water and placed on an HLB column. […] The radiolabeled peptide in […] was mixed with 250 μL of fresh human serum in a vial and incubated at 37° C.
The purified radiolabeled peptide in 50 μL 1:1 EtOH/H2O was mixed with 150 μL of human serum and placed in the HPLC autosampler heated to 37° C. and analyzed by RP-HPLC.

[2] = system: nude mice bearing LS174T human colonic cancer xenografts; experiment: in vivo
Procedure: (§1) Mice were necropsied at 1 and 3 h post injection, 7 mice per time point.
(§2) Biodistribution studies were performed in Taconic nude mice bearing subcutaneous LS174T tumor xenografts.
(§3) Mice were necropsied at 1 and 3 h post injection, 6 mice per time point.

[3] = Biodistribution of Al^18F(IMP485) alone or TF2 pretargeted; conditions: Taconic nude, mouse, in vivo, iv
Procedure: as §1, §2, §3

[4] = Taconic nude, mouse, in vivo, iv, 1 h
[5] = Taconic nude, mouse, in vivo, iv, 3 h
[6] = nude (Taconic), mouse, in vivo, iv, 3 h
[7] = nude, mouse, in vivo, iv, 28 uCi, 3 h

In the case of `NC(=O)[C@@H](CCCCNC(=O)CNC(=O)CCC(=O)NCCc1c[nH]cn1)NC(=O)[C@@H](Cc1ccc(O)cc1)NC(=O)[C@@H](CCCCNC(=O)CNC(=O)CCC(=O)NCCc1c[nH]cn1)NC(=O)Cc1ccc(CN2CCN(CC(=O)O)CCN(CC(=O)O)CC2)cc1` [Al^18F(IMP485)], the “stability in human serum” value [1] is reported as “stable”, the “% ID/g Lg. Int.” value [2, 4] is reported as 0.10 ± 0.03 % ID/g and the “% ID/g Liver” value [2, 4] is reported as 0.24 ± 0.04 % ID/g. For the same compound, the “% ID/g Muscle” value [2, 4] was 0.14 ± 0.10 % ID/g, the “% ID/g Blood” value [2, 5] was 0.02 ± 0.01 % ID/g and the “% ID/g Lung” value [2, 5] was 0.24 ± 0.06 % ID/g. The “% ID/g Muscle” value [2, 5] was 0.03 ± 0.01 % ID/g, the “% ID/g Stomach” value [2, 5] was 0.03 ± 0.02 % ID/g and the “% ID/g Sm. Int.” value ([2]; alone, 1 h post injection) was 0.40 ± 0.13 % ID/g. For the same compound, the “% ID/g Spleen” value ([2]; alone, 1 h post injection) was 0.21 ± 0.18 % ID/g, the “% ID/g Stomach” value ([2]; alone, 1 h post injection) was 0.13 ± 0.11 % ID/g and the “% ID/g Tumor” value ([2]; alone, 1 h post injection) was 0.32 ± 0.11 % ID/g. For the same compound, the “T/NT Blood” value ([2]; alone, 1 h post injection) was 2.0, the “T/NT Kidney” value ([2]; alone, 1 h post injection) was 0.1 and the “T/NT Lg. Int.” value ([2]; alone, 1 h post injection) was 3.9. For the same compound, the “T/NT Liver” value ([2]; alone, 1 h post injection) was 1.8, the “T/NT Lung” value ([2]; alone, 1 h post injection) was 1.3 and the “T/NT Muscle” value ([2]; alone, 1 h post injection) was 4.1. The “T/NT Scapula” value ([2]; alone, 1 h post injection) was 2.9, the “T/NT Sm. Int.” value ([2]; alone, 1 h post injection) was 0.8 and the “T/NT Spleen” value ([2]; alone, 1 h post injection) was 1.9. The “T/NT Stomach” value ([2]; alone, 1 h post injection) was 3.5, the “T/NT Tumor” value ([2]; alone, 1 h post injection) was 1.0 and the “% ID/g Stomach” value ([2]; alone, 3 h post injection) was 0.04 ± 0.02 % ID/g. For the same compound, the “% ID/g Tumor” value ([2]; alone, 3 h post injection) was 0.09 ± 0.02 % ID/g, the “T/NT Blood” value ([2]; alone, 3 h post injection) was 21.0 and the “T/NT Kidney” value ([2]; alone, 3 h post injection) was 0.0. For the same compound, the “T/NT Lg. Int.” value ([2]; alone, 3 h post injection) was 0.1, the “T/NT Liver” value ([2]; alone, 3 h post injection) was 13.6 and the “T/NT Lung” value ([2]; alone, 3 h post injection) was 1.3. For the same compound, the “T/NT Muscle” value ([2]; alone, 3 h post injection) was 203.9, the “T/NT Scapula” value ([2]; alone, 3 h post injection) was 1.2 and the “T/NT Sm. Int.” value ([2]; alone, 3 h post injection) was 0.7. For the same compound, the “T/NT Spleen” value ([2]; alone, 3 h post injection) was 1.4, the “T/NT Stomach” value ([2]; alone, 3 h post injection) was 2.5 and the “T/NT Tumor” value ([2]; alone, 3 h post injection) was 1.0. For the same compound, the “T/NT Tumor” value ([2]; mouse, in vivo) was 1, the “% ID/g Lg. Int.” value ([2]; nude (Taconic), mouse, in vivo, iv, 28 uCi, 1 h) was 0.08 ± 0.02 % ID/g and the “% ID/g Lung” value ([2]; nude (Taconic), mouse, in vivo, iv, 28 uCi, 3 h) was 0.07 ± 0.02 % ID/g. For the same compound, the “% ID/g Scapula” value [2, 6] was 0.06 ± 0.02 % ID/g, the “% ID/g Spleen” value [2, 6] was 0.25 ± 0.11 % ID/g and the “% ID/g Liver” value [2, 7] was 0.10 ± 0.05 % ID/g. For the same compound, the “% ID/g Muscle” value [2, 7] was 0.01 ± 0.01 % ID/g, the “% ID/g Blood” value ([2]; nude, mouse, in vivo, iv, 1 h) was 0.28 ± 0.07 % ID/g and the “% ID/g Stomach” value ([2]; nude, mouse, in vivo, iv, 1 h) was 0.53 ± 1.18 % ID/g. For the same compound, the tissue uptake at 3 h [3] was 0.353 %ID/g, the tissue uptake at 3 h ([3]; % ID/g Blood) was 0.023 %ID/g and the tissue uptake at 1 h ([3]; % ID/g Kidney) was 3.19 %ID/g. The tissue uptake at 1 h ([3]; % ID/g Lg. Int.) was 0.104 %ID/g, the tissue uptake at 3 h ([3]; % ID/g Lg. Int.) was 0.35 ± 0.16 %ID/g and the tissue uptake at 1 h ([3]; % ID/g Liver) was 0.237 %ID/g. For the same compound, the tissue uptake at 3 h ([3]; % ID/g Lung) was 0.244 %ID/g, the tissue uptake at 1 h ([3]; % ID/g Muscle) was 0.136 %ID/g and the tissue uptake at 3 h ([3]; % ID/g Muscle) was 0.025 %ID/g. For the same compound, the tissue uptake at 1 h ([3]; % ID/g Scapula) was 0.5 %ID/g, the tissue uptake at 3 h ([3]; % ID/g Sm. Int.) was 0.071 %ID/g and the tissue uptake at 1 h ([3]; % ID/g Spleen) was 0.254 %ID/g. The tissue uptake at 3 h ([3]; % ID/g Stomach) was 0.025 %ID/g, the tissue uptake at 1 h ([3]; % ID/g Tumor) was 28.1 %ID/g and the tissue uptake dose at 3 h ([3]; % ID/org Blood) was 0.037 %ID. The tissue uptake dose at 1 h ([3]; % ID/org Kidney) was 0.444 %ID, the tissue uptake dose at 1 h ([3]; % ID/org Lg. Int.) was 0.055 %ID and the tissue uptake dose at 3 h ([3]; % ID/org Lg. Int.) was 0.206 %ID.
